Common to all, as to assay type: biochemical
One assay concerns the target T1, PYR1-HAB1 (Arabidopsis thaliana, UniProt O49686).
T1 construct: 6xHis (N); made in house; host or cells: E. coli BL21[DE3]pLysS (stated for GST-HAB1)
T1 sequence (O49686 1-191): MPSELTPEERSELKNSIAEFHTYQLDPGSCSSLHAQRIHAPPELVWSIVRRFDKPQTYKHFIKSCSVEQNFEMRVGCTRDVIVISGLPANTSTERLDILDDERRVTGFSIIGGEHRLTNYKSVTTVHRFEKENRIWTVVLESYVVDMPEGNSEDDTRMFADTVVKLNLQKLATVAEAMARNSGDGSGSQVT
T1 sequence (Q9CAJ0 23-511 partner): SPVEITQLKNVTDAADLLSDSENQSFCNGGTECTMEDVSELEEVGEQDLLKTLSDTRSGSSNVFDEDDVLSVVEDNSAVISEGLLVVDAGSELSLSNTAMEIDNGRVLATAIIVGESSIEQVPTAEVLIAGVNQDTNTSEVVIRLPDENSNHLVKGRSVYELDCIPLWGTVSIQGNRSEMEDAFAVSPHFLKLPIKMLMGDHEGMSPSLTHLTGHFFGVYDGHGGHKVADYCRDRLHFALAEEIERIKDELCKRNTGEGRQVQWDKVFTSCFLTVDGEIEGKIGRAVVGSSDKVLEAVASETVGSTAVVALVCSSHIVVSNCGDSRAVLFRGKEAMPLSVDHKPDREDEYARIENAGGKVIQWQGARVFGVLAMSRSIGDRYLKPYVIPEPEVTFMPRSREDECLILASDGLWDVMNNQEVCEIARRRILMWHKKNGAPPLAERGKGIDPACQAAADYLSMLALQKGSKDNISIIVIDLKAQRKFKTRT
Put plainly: PP2C activity assay, PYR1-HAB1 inhibition. An excerpt:
(§1) The protein HAB1, a type 2 protein phosphatase (PP2C), is inhibited by PYR/PYL proteins in dependence of abscisic acid or other agonists. The potency of an agonist correlates with the level of inhibition of the PP2C, and therefore the IC50 (receptor-HAB1) can be used to compare the relative activity of different chemical analogues. Since inhibition of PP2C correlates to inhibition of seed-germination and increase in plant water-use efficiency, it serves as a powerful tool to quantify biological potential of a chemical acting as an analogue of abscisic acid.
(§2) HAB1 and PYL proteins were expressed and purified as described in Park et al. ((2009) Science 324(5930):1068-1071), with minor modifications. GST-HAB1 was produced by expression in BL21[DE3]pLysS host cells with an expression clone containing the HAB1 cDNA cloned into pGex-2T. Transformed E. coli cells were pre-cultured overnight, transferred to LB medium and cultured at 30° C. to culture A600 of ˜0.5 OD units. The culture was then cooled on ice and MnCl2 added to 4 mM and IPTG added to 0.3 mM. After 16 hours incubation at 15° C., cells were harvested and recombinant proteins were purified on glutathione agarose as described in Park et al. To obtain 6×His-PYL receptor fusion proteins, we used expression constructs previously described by Okamoto et al. 2013, (PNAS 110(29): 12132-12137).
(§3) PP2C activity assays using recombinant receptors and PP2Cs were carried out as follows: purified proteins were pre-incubated in 160 μl assay buffer containing (100 mM Tris-HCl-pH7.9, 100 mM NaCl, 3 μg bovine serum albumin and 0.1% 2-mercaptoethanol), 1 mM MnCl2 with carrier solvent (DMSO), quinabactin or quinabactin analogs (compounds of the present invention) for 30 minutes at room temperature. Reactions were started by adding 40 μL of a reaction solution containing 25 mM 4-nitrophenyl phosphate in assay buffer, after which absorbance measurements were immediately collected (405 nm) using a Wallac plate reader. […] Inhibition is indicated by reduced PP2C activity, which is expressed as a percentage of the control PP2C activity values that were obtained from assays containing carrier solvent instead but no test compound.

The next assay addresses T2, PYL1-HAB1 (Arabidopsis thaliana, UniProt Q8VZS8).
T2 construct: 6xHis (N); made in house; host or cells: E. coli BL21[DE3]pLysS (stated for GST-HAB1)
T2 sequence (Q8VZS8 1-221): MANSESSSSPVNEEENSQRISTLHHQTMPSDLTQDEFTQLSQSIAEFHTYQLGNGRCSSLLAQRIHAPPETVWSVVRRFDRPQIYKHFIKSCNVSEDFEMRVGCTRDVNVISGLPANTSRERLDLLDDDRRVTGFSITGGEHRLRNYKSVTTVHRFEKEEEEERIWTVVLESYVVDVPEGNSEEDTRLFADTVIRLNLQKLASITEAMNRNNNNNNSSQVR
T2 sequence (Q9CAJ0 23-511 partner): T1 sequence (Q9CAJ0 23-511 partner)
Put plainly: PP2C activity assay, PYL1-HAB1 inhibition. The note with it: 200 nM test compound, 100 nM HAB1 PP2C, 200 nM receptor; read-out: % Inhibition of PYR/PYL-HAB1 at 200 nM: PYL1.
From the text: as §1, §2
PP2C activity assays using recombinant receptors and PP2Cs were carried out as follows: purified proteins were pre-incubated in 160 μl assay buffer containing (100 mM Tris-HCl-pH7.9, 100 mM NaCl, 3 μg bovine serum albumin and 0.1% 2-mercaptoethanol), 1 mM MnCl2 with carrier solvent (DMSO), quinabactin or quinabactin analogs (compounds of the present invention) for 30 minutes at room temperature. Reactions were started by adding 40 μL of a reaction solution containing 25 mM 4-nitrophenyl phosphate in assay buffer, after which absorbance measurements were immediately collected (405 nm) using a Wallac plate reader. Reactions contained 100 nM HAB1 PP2C and 200 nM receptor and 200 nM test compound. Inhibition is indicated by reduced PP2C activity, which is expressed as a percentage of the control PP2C activity values that were obtained from assays containing carrier solvent instead but no test compound.

Another assay concerns the target T3, PYL2-HAB1 (Arabidopsis thaliana, UniProt O80992).
T3 construct: 6xHis (N); made in house; host or cells: E. coli BL21[DE3]pLysS (stated for GST-HAB1)
T3 sequence (O80992 1-190): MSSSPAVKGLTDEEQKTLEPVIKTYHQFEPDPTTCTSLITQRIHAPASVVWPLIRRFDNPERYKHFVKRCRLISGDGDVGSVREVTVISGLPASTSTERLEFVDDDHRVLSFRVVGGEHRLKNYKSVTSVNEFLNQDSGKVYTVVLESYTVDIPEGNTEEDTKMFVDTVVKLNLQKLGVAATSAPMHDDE
T3 sequence (Q9CAJ0 23-511 partner): T1 sequence (Q9CAJ0 23-511 partner)
Put plainly: PP2C activity assay, PYL2-HAB1 inhibition.
From the text: as §1, §2, §3

Setting [1] is: dose response in triplicate, non-linear regression.

Turning to `CCCN1C(=O)CCc2cc(NS(=O)(=O)Cc3ccc(C)cc3)ccc21` [Quinabactin], the activity at 0.2 µM is 22% at PYR1-HAB1 (200 nM test compound, 100 nM HAB1 PP2C, 200 nM receptor, read-out: % Inhibition of PYR/PYL-HAB1 at 200 nM: PYR1) and 23% at PYL1-HAB1. Further, the IC50 against PYR1-HAB1 (setting [1]) was found to be 104 nM; against PYL2-HAB1 (setting [1]), 262 nM. Besides, the percent inhibition at 0.2 µM on PYL2-HAB1 (200 nM test compound, 100 nM HAB1 PP2C, 200 nM receptor, read-out: % Inhibition of PYR/PYL-HAB1 at 200 nM: PYL2) stood at 44%.

As usually defined, the IC50 is the point on the concentration scale where inhibition reaches its midpoint.

For the origin of these results see patent US11332443B2, “Derivatives of halo quinabactin” (THE REGENTS OF THE UNIVERSITY OF CALIFORNIA, priority 2015, dated 2022).
